Activity calls are given as the source filed them. The calls are words filed in the database; no cut-off is given here.
How the values were obtained:
[1] = system: SW1990; assay: Induction of cell cycle arrest at S phase in human SW1990 cells at 2 uM incubated for 6 days by PI staining based flow cytometry (reference value: 21.20 %); assay type: functional; settings: time 6 day
[2] = system: SW1990; assay: Induction of cell cycle arrest at G2/M phase in human SW1990 cells at 2 uM incubated for 6 days by PI staining based flow cytometry (reference value: 29.15 %); assay type: functional; settings: time 6 day
[3] = system: SW1990; assay: Inhibition of cell invasion in human SW1990 cells at 0.5 to 2 uM by transwell assay; assay type: functional, cell-based; settings: dose 0.5-2 µM
[4] = system: SW1990; assay: Inhibition of cell migration in human SW1990 cells at 0.5 to 2 uM by transwell assay; assay type: functional, cell-based; settings: dose 0.5-2 µM
[5] = system: SW1990; assay: Downregulation of N-cadherin level in human SW1990 cells at 0.5 to 2 uM by Western blot analysis; assay type: functional, cell-based; settings: dose 0.5-2 µM
[6] = system: SW1990; assay: Downregulation of Snail level in human SW1990 cells at 0.5 to 2 uM by Western blot analysis; assay type: functional, cell-based; settings: dose 0.5-2 µM
[7] = system: SW1990; assay: Upregulation of E-cadherin level in human SW1990 cells at 0.5 to 2 uM by Western blot analysis; assay type: functional, cell-based; settings: dose 0.5-2 µM
[8] = system: SW1990; assay: Antitumor activity in human SW1990 cells assessed as decrease in CD133 level at 0.5 to 2 uM by immunofluorescence based analysis; assay type: functional, cell-based; settings: dose 0.5-2 µM
[9] = system: SW1990; assay: Antitumor activity in human SW1990 cells assessed as decrease in CD44 level at 0.5 to 2 uM by immunofluorescence based analysis; assay type: functional, cell-based; settings: dose 0.5-2 µM
[10] = Metabolic stability in mouse liver microsomes assessed as half life at 1 uM preincubated for 10 mins followed by NADPH measured for 60 mins by LC-MS/MS analysis; assay type: ADME, Microsome; settings: time 70 min
[11] = Metabolic stability in mouse liver microsomes assessed as intrinsic clearance at 1 uM preincubated for 10 mins followed by NADPH measured for 60 mins by LC-MS/MS analysis; assay type: ADME, Microsome; settings: time 70 min, read-out: CLH
[12] = system: SW1990; assay: Antitumor activity against human SW1990 cells xenografted in BALB/c nude mouse model assessed as tumor growth inhibition treated intraperitoneally for 21 days consecutively; assay type: functional; settings: dose 30-60 mg/kg, route ip, time 21.0 day
[13] = Toxicity in BALB/c nude mouse xenografted with human SW1990 cells assessed as drug tolerance at 30 to 60 mg/kg, ip for 21 days consecutively; assay type: organism-based; settings: in vivo, 504 h, dose 30-60 mg/kg, time 21 day
[14] = Toxicity in BALB/c nude mouse xenografted with human SW1990 cells assessed as animal mortality at 30 to 60 mg/kg, ip for 21 days consecutively; assay type: organism-based; settings: in vivo, 504 h, dose 30-60 mg/kg, time 21 day
[15] = system: SW1990; assay: Antitumor activity against human SW1990 cells xenografted in BALB/c nude mouse model assessed as tumor growth inhibition at 60 mg/kg, ip for 21 days consecutively relative to control; assay type: functional; settings: SW1990, 504 h, time 21 day, read-out: TGI
[16] = Toxicity in BALB/c nude mouse xenografted with human SW1990 cells assessed as change in body weight at 30 to 60 mg/kg, ip for 21 days consecutively; assay type: organism-based; settings: in vivo, 504 h, dose 30-60 mg/kg, time 21 day
[17] = system: SW1990; assay: Antitumor activity against human SW1990 cells xenografted in BALB/c nude mouse model assessed as change in cell contraction treated intraperitoneally for 21 days consecutively by H and E staining based analysis; assay type: functional; settings: dose 30-60 mg/kg, route ip, time 21.0 day
[18] = system: SW1990; assay: Antitumor activity against human SW1990 cells xenografted in BALB/c nude mouse model assessed as change in agglutination treated intraperitoneally for 21 days consecutively by H and E staining based analysis; assay type: functional; settings: dose 30-60 mg/kg, route ip, time 21.0 day
[19] = system: SW1990; assay: Antitumor activity against human SW1990 cells xenografted in BALB/c nude mouse model assessed as change in nuclear chromatin marginalization treated intraperitoneally for 21 days consecutively by H and E staining based analysis; assay type: functional; settings: dose 30-60 mg/kg, route ip, time 21.0 day
[20] = system: SW1990; assay: Antitumor activity against human SW1990 cells xenografted in BALB/c nude mouse model assessed as decrease in N-cadherin level at 30 to 60 mg/kg, ip for 21 days consecutively by Western blot analysis; assay type: functional, organism-based; settings: dose 30-60 mg/kg, time 21.0 day
[21] = system: SW1990; assay: Antitumor activity against human SW1990 cells xenografted in BALB/c nude mouse model assessed as decrease in Snail level at 30 to 60 mg/kg, ip for 21 days consecutively by Western blot analysis; assay type: functional, organism-based; settings: dose 30-60 mg/kg, time 21.0 day
[22] = system: SW1990; assay: Antitumor activity against human SW1990 cells xenografted in BALB/c nude mouse model assessed as increase in E-cadherin level at 30 to 60 mg/kg, ip for 21 days consecutively by Western blot analysis; assay type: functional, organism-based; settings: dose 30-60 mg/kg, time 21.0 day
[23] = system: SW1990; assay: Antitumor activity against human SW1990 cells xenografted in BALB/c nude mouse model assessed as decrease in CD133 level at 30 to 60 mg/kg, ip for 21 days consecutively by IHC analysis; assay type: functional, organism-based; settings: dose 30-60 mg/kg, time 21.0 day
[24] = system: SW1990; assay: Antitumor activity against human SW1990 cells xenografted in BALB/c nude mouse model assessed as decrease in CD44 level at 30 to 60 mg/kg, ip for 21 days consecutively by IHC analysis; assay type: functional, organism-based; settings: dose 30-60 mg/kg, time 21.0 day

COc1cc(N2CCN(C)CC2)ccc1Nc1nc(Nc2ccccc2S(=O)(=O)C(C)C)c2nc[nH]c2n1
Activity [1]: 14.23%
Activity [2]: 22.63%
inhibition [3]: Active
inhibition [4]: Active
Activity [5]: Active
Activity [6]: Active
Activity [7]: Active
Activity [8]: Active
Activity [9]: Active
half-life at 1 µM [10]: 45.9 min
CLint scaled at 1 µM [11]: 120 mL/min/kg
microsomal CLint at 1 µM [11]: 30.2 µL/min/mg
inhibition [12]: Dose-Dependent Effect
Activity [13]: Non-Toxic
Activity [14]: Non-Toxic
inhibition in vivo at 60 mg/kg [15]: 68.6%
Activity [16]: Toxic
Activity [17]: Dose-Dependent Effect
Activity [18]: Dose-Dependent Effect
Activity [19]: Dose-Dependent Effect
Activity [20]: Active
Activity [21]: Active
Activity [22]: Active
Activity [23]: Active
Activity [24]: Active

— ChEMBL document CHEMBL5634144, “Design, synthesis and biological evaluation of novel DCLK1 inhibitor containing purine skeleton for the treatment of pancreatic cancer” (Eur J Med Chem, 2023)
